We go through 2 compounds from patent publication US20260102422A1, “4'-HALOGEN CONTAINING NUCLEOTIDE AND NUCLEOSIDE THERAPEUTIC COMPOSITIONS AND USES RELATED THERETO” (priority 2019, published 2026).

Data set [1] in a line: Liver microsome stability, rat. The conditions noted are these: rat liver microsomes, drug 1.00 μM. Background: Microsomes from liver hold many membrane-bound enzymes, among them those of drug oxidation.
A short description of data set [2]: Liver microsome stability, human. The conditions noted are these: human liver microsomes, drug 1.00 μM.
The next data set in a line: Plasma stability, mouse. The conditions noted are these: drug 1.00 μM.
The nature of another data set: Plasma stability, human. The conditions noted are these: drug 1.00 μM.
The nature of a further data set: Plasma stability, rat. The conditions noted are these: drug 1.00 μM.
Data set [3] in a line: Liver microsome stability, mouse. The conditions noted are these: mouse liver microsomes, drug 1.00 μM.

Consider `O=c1ccn([C@@H]2O[C@](F)(COP3(=O)OCc4ccccc4O3)[C@@H](O)[C@H]2O)c(=O)[nH]1` (stereo partly shown) [EIDD-02838], for which the half-life in data set [1] is recorded as 8 min; in data set [2], 7 min; in the data set “Plasma stability, mouse” it was 1 min; in “Plasma stability, human” (37° C), 12 min; in the data set “Plasma stability, rat”, less than 1 min; in data set [3], 7 min. The “max [2749]” value came to 0.218 µM in data set [1] (EIDD-2749 formed); 0.130 µM in data set [2] (EIDD-2749 formed); 0.0216 µM in “Plasma stability, mouse” (EIDD-2749 formed); 0.0521 µM in “Plasma stability, human” (EIDD-2749 formed); 0.0341 µM in “Plasma stability, rat” (EIDD-2749 formed); 0.0347 µM in data set [3] (EIDD-2749 formed).

In the case of `CC(C)C(=O)OC[C@@]1(F)OC(n2ccc(=O)[nH]c2=O)C(O)[C@@H]1O` (stereo partly drawn) [EIDD-2947, [(2S, 3S)-5-(2,4-dioxopyrimidin-1-yl)-2-fluoro-3,4-dihydroxy-tetrahydrofuran-2-yl]methyl 2-methylpropanoate], the half-life in data set [2] was found to be 44 min.

One may read the half-life as how long it takes for the measured level to halve. Lower therefore signals fast loss.
